Molecular target: T1, KRAS G12C and cRAF interaction (Homo sapiens, UniProt P01116, C118S/C51S/C80L/G12C)
T1 construct: truncated version comprising amino acids 1-169
Test: Inhibition of KRAS G12C and cRAF binding (AlphaScreen)
Type: biochemical
Details: KRAS G12C (Cys-light, aa 1-169) preloaded with GMPPNP, cRaf RBD (aa 50-131), 2 hours incubation
Experimental: The AlphaScreen technology was used to determine IC50s for compound inhibition of KRAS G12C (present as the Cys-light (C51S, C80L and C118S), truncated version comprising amino acids 1-169) and cRAF interaction. Compounds were diluted in 100% DMSO and each compound concentration was spotted at 200 nl/well onto low volume, white 384 well plates. The KRAS G12C contained a biotin-AviTag and the cRaf, as Ras-binding domain (amino acids 50-131, RBD), was GST-tagged. KRAS G12C was preloaded with the GTP analogue Guanosine 5′-[β,γ-imido]triphosphate (GMPPNP). The KRAS G12C was diluted in 25 mM Hepes, pH 7.4, 150 mM NaCl, 5 mM MgCl2, 0.01% TritonX-100 and 10 μM GMPPNP and added at 10 μl/well to compound-spotted plates resulting in a DMSO concentration of 2%. Plates were incubated for 2 hours. A mixture of RBD and the AlphaScreen streptavidin donor and glutathione acceptor beads diluted in 25 mM Hepes, pH 7.4, 150 mM NaCl, 5 mM MgCl2, 0.01% TritonX-100 and 2% DMSO was then added at 10 μl/well and incubated for 60-90 minutes before the samples were read for emission at 570 nm after excitation of the donor beads at 680 nm. All incubations were performed at room temperature. The final top compound concentration was 50 μM with 1:3 titrations for 10-point dose response curves. Final assay conditions were 0.5 nM KRAS G12C, 0.75 nM RBD and 5 μg/ml each of AlphaScreen donor and acceptor beads. IC50S were determined using nonlinear regression fit of [inhibitor] vs. response (4 parameters).
A counter assay was also set up to rule out inhibitors of the AlphaScreen technology itself. Compound plates were incubated for 2 hours as above with buffer only.
The AlphaScreen beads were added as above except biotin-AviTag-GST was substituted for the RBD. Samples were read and analyzed as above.

T1 sequence (P01116 1-169 isoform P01116-2 G12C/C51S/C80L/C118S): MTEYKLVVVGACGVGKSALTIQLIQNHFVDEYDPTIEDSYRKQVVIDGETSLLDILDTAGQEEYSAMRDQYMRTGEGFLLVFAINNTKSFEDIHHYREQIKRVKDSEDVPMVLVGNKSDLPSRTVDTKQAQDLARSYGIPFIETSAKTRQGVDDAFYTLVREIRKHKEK

## Cc1nccc(/C=C/C(=O)N2CCN(c3nc(OC[C@@]45CCCN4C[C@H](F)C5)nc4c(F)c(-c5cccc6cccc(Cl)c56)ncc34)CC23COC3)n1 [Example 2, (E)-1-(8-(7-(8-chloronaphthalen-1-yl)-8-fluoro-2-(((2R,7aS)-2-fluorotetrahydro-1H-pyrrolizin-7a(5H)-yl)methoxy)pyrido[4,3-d]pyrimidin-4-yl)-2-oxa-5,8-diazaspiro[3.5]nonan-5-yl)-3-(2-methylpyrimidin-4-yl) prop-2-en-1-one]
  IC50: 100 to 500 nM

## O=C(/C=C/CN1CCOCC1)N1CCN(c2nc(OC[C@@]34CCCN3C[C@H](F)C4)nc3c(F)c(-c4cccc5ccc(F)c(F)c45)ncc23)CC12COC2 [Example 18, (E)-1-(8-(7-(7,8-difluoronaphthalen-1-yl)-8-fluoro-2-(((2R,7aS)-2-fluorotetrahydro-1H-pyrrolizin-7a(5H)-yl)methoxy)pyrido[4,3-d]pyrimidin-4-yl)-2-oxa-5,8-diazaspiro[3.5]nonan-5-yl)-4-morpholinobut-2-en-1-one]
  IC50: 10 to 100 nM

## C#Cc1c(F)ccc2cccc(-c3ncc4c(N5CCN(C(=O)/C=C/CN6CC[C@@H](OC)C6)C6(COC6)C5)nc(OC[C@@]56CCCN5C[C@H](F)C6)nc4c3F)c12 [Example 43, (E)-1-(8-(7-(8-ethynyl-7-fluoronaphthalen-1-yl)-8-fluoro-2-(((2R,7aS)-2-fluorotetrahydro-1H-pyrrolizin-7a(5H)-yl)methoxy)pyrido[4,3-d]pyrimidin-4-yl)-2-oxa-5,8-diazaspiro[3.5]nonan-5-yl)-4-((R)-3-methoxypyrrolidin-1-yl) but-2-en-1-one]
  IC50: 10 to 100 nM

## C=CC(=O)N1CCN(c2nc(OC[C@@]34CCCN3C[C@H](F)C4)nc3c(F)c(-c4cccc(Cl)c4C(F)(F)F)ncc23)CC12COC2 [Example 39, 1-(8-(7-(3-chloro-2-(trifluoromethyl)phenyl)-8-fluoro-2-(((2R,7aS)-2-fluorotetrahydro-1H-pyrrolizin-7a(5H)-yl)methoxy)pyrido[4,3-d]pyrimidin-4-yl)-2-oxa-5,8-diazaspiro[3.5]nonan-5-yl) prop-2-en-1-one]
  IC50: 10 to 100 nM

## CC(C#CC(=O)N1CCN(c2nc(OC[C@@]34CCCN3C[C@H](F)C4)nc3c(F)c(-c4cccc5cccc(Cl)c45)ncc23)CC12COC2)N1CCOCC1 (stereo partly drawn) [Example 40, 1-(8-(7-(8-chloronaphthalen-1-yl)-8-fluoro-2-(((2R,7aS)-2-fluorotetrahydro-1H-pyrrolizin-7a(5H)-yl)methoxy)pyrido[4,3-d]pyrimidin-4-yl)-2-oxa-5,8-diazaspiro[3.5]nonan-5-yl)-4-morpholinopent-2-yn-1-one]
  IC50: 100 to 500 nM

## O=C(/C=C/CN1CC2CC(C1)O2)N1CCN(c2nc(OC[C@@]34CCCN3C[C@H](F)C4)nc3c(F)c(-c4cccc5cccc(Cl)c45)ncc23)CC12COC2 [Example 14, (E)-4-(6-oxa-3-azabicyclo[3.1.1]heptan-3-yl)-1-(8-(7-(8-chloronaphthalen-1-yl)-8-fluoro-2-(((2R,7aS)-2-fluorotetrahydro-1H-pyrrolizin-7a(5H)-yl)methoxy)pyrido[4,3-d]pyrimidin-4-yl)-2-oxa-5,8-diazaspiro[3.5]nonan-5-yl) but-2-en-1-one]
  IC50: 10 to 100 nM

## CN(C/C=C/C(=O)N1CCN(c2nc(OC[C@@]34CCCN3C[C@H](F)C4)nc3c(F)c(-c4cccc5cccc(Cl)c45)ncc23)CC12COC2)CC1COC1 [Example 3, (E)-1-(8-(7-(8-chloronaphthalen-1-yl)-8-fluoro-2-(((2R,7aS)-2-fluorotetrahydro-1H-pyrrolizin-7a(5H)-yl)methoxy)pyrido[4,3-d]pyrimidin-4-yl)-2-oxa-5,8-diazaspiro[3.5]nonan-5-yl)-4-(methyl(oxetan-3-ylmethyl)amino)but-2-en-1-one]
  IC50: 10 to 100 nM

## C#Cc1c(F)ccc2cccc(-c3ncc4c(N5CCN(C(=O)/C=C/c6cc(C)nc(C)n6)C6(COC6)C5)nc(OC[C@@]56CCCN5C[C@H](F)C6)nc4c3F)c12 [Example 48, (E)-3-(2,6-dimethylpyrimidin-4-yl)-1-(8-(7-(8-ethynyl-7-fluoronaphthalen-1-yl)-8-fluoro-2-(((2R,7aS)-2-fluorotetrahydro-1H-pyrrolizin-7a(5H)-yl)methoxy)pyrido[4,3-d]pyrimidin-4-yl)-2-oxa-5,8-diazaspiro[3.5]nonan-5-yl) prop-2-en-1-one]
  IC50: 10 to 100 nM

## Cc1nccc(/C=C/C(=O)N2CCN(c3nc(OC[C@@]45CCCN4C[C@H](F)C5)nc4c(F)c(-c5ccccc5C(F)F)ncc34)CC23COC3)n1 [Example 94]
  IC50: ≥ 500 nM

## C=CC(=O)N1CCN(c2nc(OC[C@@]34CCCN3C[C@H](F)C4)nc3c(F)c(-c4ccc(F)c5sc(N)nc45)c(C(F)(F)F)cc23)C[C@]12CCOC2 [Example 92]
  IC50: 10 to 100 nM

## C=CC(=O)N1CCN(c2nc(OC[C@@]34CCCN3C[C@H](F)C4)nc3c(F)c(-c4cc(O)cc(Cl)c4C4CC4)c(Cl)cc23)CC12COC2 [Example 78, 1-(8-(6-chloro-7-(3-chloro-2-cyclopropyl-5-hydroxyphenyl)-8-fluoro-2-(((2R,7aS)-2-fluorotetrahydro-1H-pyrrolizin-7a(5H)-yl)methoxy)quinazolin-4-yl)-2-oxa-5,8-diazaspiro[3.5]nonan-5-yl) prop-2-en-1-one]
  IC50: < 10 nM

## O=C(/C=C/CN1CCOCC1)N1CCN(c2nc(OC[C@@]34CCCN3C[C@H](F)C4)nc3c(F)c(-c4cc(O)cc(Cl)c4C4CC4)ncc23)CC12COC2 [Example 30, (E)-1-(8-(7-(3-chloro-2-cyclopropyl-5-hydroxyphenyl)-8-fluoro-2-(((2R,7aS)-2-fluorotetrahydro-1H-pyrrolizin-7a(5H)-yl)methoxy)pyrido[4,3-d]pyrimidin-4-yl)-2-oxa-5,8-diazaspiro[3.5]nonan-5-yl)-4-morpholinobut-2-en-1-one]
  IC50: < 10 nM

## C=CC(=O)N1CCN(c2nc(OC[C@@]34CCCN3C[C@H](F)C4)nc3c(F)c(-c4cc(O)cc(Cl)c4C(F)(F)F)ncc23)CC12COC2 [Example 54, 1-(8-(7-(3-chloro-5-hydroxy-2-(trifluoromethyl)phenyl)-8-fluoro-2-(((2R,7aS)-2-fluorotetrahydro-1H-pyrrolizin-7a(5H)-yl)methoxy)pyrido[4,3-d]pyrimidin-4-yl)-2-oxa-5,8-diazaspiro[3.5]nonan-5-yl) prop-2-en-1-one]
  IC50: < 10 nM

## CN1CC[C@@H]1/C=C/C(=O)N1CCN(c2nc(OC[C@@]34CCCN3C[C@H](F)C4)nc3c(F)c(-c4cc(O)cc(Cl)c4C4CC4)ncc23)CC12COC2 [Example 73, (E)-1-(8-(7-(3-chloro-2-cyclopropyl-5-hydroxyphenyl)-8-fluoro-2-(((2R,7aS)-2-fluorotetrahydro-1H-pyrrolizin-7a(5H)-yl)methoxy)pyrido[4,3-d]pyrimidin-4-yl)-2-oxa-5,8-diazaspiro[3.5]nonan-5-yl)-3-((R)-1-methylazetidin-2-yl) prop-2-en-1-one]
  IC50: < 10 nM

## CCc1c(F)ccc2cccc(-c3ncc4c(N5CCN(C(=O)/C(F)=C/c6ccnc(C)n6)C6(COC6)C5)nc(OC[C@@]56CCCN5C[C@H](F)C6)nc4c3F)c12 [Example 62, (Z)-1-(8-(7-(8-ethyl-7-fluoronaphthalen-1-yl)-8-fluoro-2-(((2R,7aS)-2-fluorotetrahydro-1H-pyrrolizin-7a(5H)-yl)methoxy)pyrido[4,3-d]pyrimidin-4-yl)-2-oxa-5,8-diazaspiro[3.5]nonan-5-yl)-2-fluoro-3-(2-methylpyrimidin-4-yl) prop-2-en-1-one]
  IC50: < 10 nM

Source: US20260207615A1, “FLUOROPYRIDOPYRIMIDINE AND FLUOROQUINAZOLINE DERIVATIES AND METHODS OF USE THEREOF” (Frontier Medicines Corporation, priority 2022, published 2026)
